Measured values reported in US20100267561A1, “HERBICIDAL PYRIDAZINONE DERIVATIVES” (priority 2007, published 2010).

What was measured:
Assay in all cases: Test A pre-/postemergence plant response
Format in all cases: in vivo
[1] = test system: barnyardgrass (Echinochloa crus-galli)
Excerpt: (§1) Seeds of species selected from barnyardgrass (Echinochloa crus-galli), large crabgrass (Digitaria sanguinalis), giant foxtail (Setaria faberi), blackgrass (Alopecurus myosuroides), canarygrass (Phalaris minor), morningglory (Ipomoea coccinea), pigweed (Amaranthus retroflexus), velvetleaf (Abutilon theophrasti), wheat (Triticum aestivum), and corn (Zea mays) were planted into a blend of loam soil and sand and treated preemergence with a directed soil spray using test chemicals formulated in a non-phytotoxic solvent mixture which included a surfactant. At the same time these species were also treated with postemergence applications of test chemicals formulated in the same manner.
(§2) Plants ranged in height from 2 to 10 cm and were in the one- to two-leaf stage for the postemergence treatment. Treated plants and untreated controls were maintained in a greenhouse for approximately 10 days, after which time all treated plants were compared to untreated controls and visually evaluated for injury. Plant response ratings, summarized in Table A, are based on a 0 to 100 scale where 0 is no effect and 100 is complete control. A dash (-) response means no test results.

[2] = test system: blackgrass (Alopecurus myosuroides)
Excerpt: as §1, §2

[3] = test system: canarygrass (Phalaris minor)
Excerpt: as §1, §2

corn (Zea mays) = test system: corn (Zea mays)
Excerpt: as §1, §2

[4] = test system: giant foxtail (Setaria faberi)
Excerpt: as §1, §2

[5] = test system: large crabgrass (Digitaria sanguinalis)
Excerpt: as §1, §2

[6] = test system: pigweed (Amaranthus retroflexus)
Excerpt: as §1, §2

[7] = test system: wheat (Triticum aestivum)
Excerpt: as §1, §2

[8] = Postemergence, 31 g ai/ha, 0 to 100 scale (0 no effect, 100 complete control)
[9] = Postemergence, 125 g ai/ha, 0 to 100 scale, 0 no effect, 100 complete control
[10] = Preemergence, 31 g ai/ha, 0 to 100 scale, 0 is no effect, 100 is complete control
[11] = Preemergence, 125 g ai/ha, 0 to 100 scale (0 no effect, 100 complete control)

SMILES | Plant response rating, Barnyardgrass [1, 8] | Plant response rating, Barnyardgrass [1, 9] | Plant response rating, Barnyardgrass [1, 10] | Plant response rating, Barnyardgrass [1, 11] | Plant response rating, Blackgrass [2, 8] | Plant response rating, Blackgrass [2, 9] | Plant response rating, Blackgrass [2, 10] | Plant response rating, Blackgrass [2, 11] | Plant response rating, Canarygrass [3, 8] | Plant response rating, Canarygrass [3, 9] | Plant response rating, Canarygrass [3, 10] | Plant response rating, Canarygrass [3, 11] | Plant response rating, Corn (corn (Zea mays); [8]) | Plant response rating, Corn (corn (Zea mays); [9]) | Plant response rating, Corn (corn (Zea mays); [10]) | Plant response rating, Corn (corn (Zea mays); [11]) | Plant response rating, Foxtail, Giant [4, 8] | Plant response rating, Foxtail, Giant [4, 9] | Plant response rating, Foxtail, Giant [4, 10] | Plant response rating, Foxtail, Giant [4, 11] | also measured
CCc1cc(-c2ccc(Br)cc2)nn1-c1c(O)c(OC)nn(C)c1=O [Compound 89] | 100 | 100 | 30 | 100 | 100 | 100 | 90 | 100 | 100 | 100 | 50 | 100 | 100 | 100 | 50 | 70 | 100 | 100 | 90 | 100 | Plant response rating, Crabgrass, Large [5, 8]: 100; Plant response rating, Crabgrass, Large [5, 9]: 100; Plant response rating, Crabgrass, Large [5, 10]: 70; Plant response rating, Crabgrass, Large [5, 11]: 100; Plant response rating, Pigweed [6, 9]: 0; Plant response rating, Pigweed [6, 10]: 0; Plant response rating, Pigweed [6, 11]: 0; Plant response rating, Wheat [7, 8]: 80; Plant response rating, Wheat [7, 9]: 90; Plant response rating, Wheat [7, 10]: 40; Plant response rating, Wheat [7, 11]: 90
COc1nn(C)c(=O)c(-n2nc(-c3ccc(Br)cc3)cc2C)c1O [Compound 93] | 100 | 100 | 20 | 100 | 90 | 100 | 30 | 100 | 80 | 100 | 10 | 90 | 80 | 100 | 30 | 60 | 100 | 100 | 90 | 100 | Plant response rating, Crabgrass, Large [5, 8]: 100; Plant response rating, Crabgrass, Large [5, 9]: 100; Plant response rating, Crabgrass, Large [5, 10]: 20; Plant response rating, Crabgrass, Large [5, 11]: 100; Plant response rating, Pigweed [6, 8]: 0; Plant response rating, Pigweed [6, 9]: 0; Plant response rating, Pigweed [6, 10]: 0; Plant response rating, Pigweed [6, 11]: 0; Plant response rating, Wheat [7, 8]: 70; Plant response rating, Wheat [7, 9]: 80; Plant response rating, Wheat [7, 10]: 50; Plant response rating, Wheat [7, 11]: 80
